Measurements: patent publication EP3009138B1, “MANGIFERA EXTRACT FOR THE MANAGEMENT OF OBESITY AND/OR WEIGHT” (Kodimule, Shyam Prasad, priority 2014, dated 2016)
Marks after values point to notes of the source that are not given here. One block for each molecule: values may come before it.

Experiments:
[1] = Hydrogen peroxide (H2O2) scavenging activity; assay type: biochemical
Experimental: Hydrogen peroxide scavenging activity of the HC was estimated in this study where initially, HC solutions were prepared at different concentrations in distilled water and the resultant solutions were mixed in 0.6 ml of 40 mM H2O2 solution prepared in phosphate buffer (0.1 M pH 7.4) and incubated for 10 min. The absorbance was measured at 230 nm against a blank solution containing H2O2. Similar procedure was repeated for HC, Mangiferin and Quercetin. The amount of hydrogen peroxide radical inhibited was calculated using the following equation. The result is expressed as % H2O2 radical scavenging activity. H2 O2 radical scavenging activity = {(Abs control−Abs sample) × 100; (Abs control)} [formula] where: • Abs control - Absorbance of H2O2 radical • Abs sample - Absorbance of sample extract/ standard (the HC, mangiferin and quercetin)

[2] = Superoxide Dismutase (SOD) activity / superoxide anion scavenging (NBT/NADH/PMS); assay type: biochemical; conditions: 100 µg/ml (method)
Experimental: The superoxide anion scavenging activity of the HC was measured in this test. 1 ml (156 µM) of Nitro blue tetrazolium (NBT), 1 ml (468 µM) of nicotinamide adenine dinucleotide (NADH) and 3 ml of the HC at 100 µg/ml concentration were admixed in phosphate buffer (pH 7.4). The reaction was started by adding 100 µl of phenazine methosulfate (PMS) (0.18mg/ml) and the mixture was incubated at 25°C for 5 min followed by measuring the absorbance at 560 nm. Similar solutions were prepared for quercetin and mangiferin and the percentage of inhibition was calculated by using the formula provided herein-below; the result was expressed as % superoxide dismutase scavenging activity. % superoxide dismutase inhibition = {(Abs control−Abs sample) × 100; Abs control} [formula] where: • Abs control - Absorbance of control • Abs sample - Absorbance of sample extract/ standard (the HC, mangiferin and quercetin)

[3] = Lipid peroxidation inhibitory assay (TBARS); assay type: biochemical; conditions: Sample Concentration: 100-500µ g/ml
Experimental: A modified Thiobarbituric acid reactive species (TBARS) assay (Ohkowa et al., 1979) is used to measure lipid peroxidation formed using egg yolk homogenate as lipid rich media (Ruberto et al., 2000).
Take 0.5ml of egg homogenate (10%in distilled water) and 0.1 ml of test sample in the concentration range 100-500µ g/ml in a test tube and volume made up to 1 ml by adding distilled water. Finally add 0.05 ml ferrous sulphate (0.07M) to the above mixture and incubate for 30 min to induce the lipid peroxidation. Thereafter add 1.5 ml of 20% acetic acid (pH 3.5) and 1.5 ml of (0.8%in 1.1% SDS) TBA and 0.05 ml (20%) TCA then heated in boiling water bath for 60 min. After cooling 5 ml of butanol will be added to all the test tubes and centrifuged at 3000 rpm for 10 min. Measure the absorbance of the organic upper layer at 532 nm. The percentage inhibition of lipid peroxidation calculated from the formula, % Inhibition = ((Abcontrol−Abtest sample)*100)/(Abcontrol) [formula] where: • Ab (cont) - is the absorbance of the control • Ab (test sample) - is the absorbance of the test sample /standard Table 12 Lipid peroxidation inhibitory assay test results

[4] = molecular target: T1, Porcine Pancreatic Lipase (Sus scrofa, UniProt P00591); test: Anti-lipase assay (triolein emulsion); assay type: biochemical; conditions: Sample Concentration: 1.2 mg/ml; 37 °C, 30 min
T1 sequence (P00591 1-450): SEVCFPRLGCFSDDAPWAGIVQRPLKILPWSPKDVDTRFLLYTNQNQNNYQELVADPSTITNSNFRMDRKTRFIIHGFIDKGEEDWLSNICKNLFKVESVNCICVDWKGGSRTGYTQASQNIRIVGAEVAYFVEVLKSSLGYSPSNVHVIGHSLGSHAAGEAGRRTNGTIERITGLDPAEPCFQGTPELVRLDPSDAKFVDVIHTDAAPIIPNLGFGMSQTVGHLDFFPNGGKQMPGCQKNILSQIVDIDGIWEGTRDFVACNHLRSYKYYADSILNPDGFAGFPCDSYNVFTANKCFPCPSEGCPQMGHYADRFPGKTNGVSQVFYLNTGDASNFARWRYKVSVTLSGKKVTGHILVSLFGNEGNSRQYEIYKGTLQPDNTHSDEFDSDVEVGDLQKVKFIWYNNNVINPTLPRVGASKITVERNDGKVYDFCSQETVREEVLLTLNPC
Experimental: A suspension containing 1% (V/V) of triolein and 1% (V/V) of tween 40 in 0.1M phosphate buffer (pH-8) was prepared and emulsified. The assay was initiated by adding 800µl of the Triolein emulsion to 200µl of Porcine Pancreatic Lipase (0.5 g Pancreatic Lipase in 15 ml of 0.1 M phosphate buffer at pH-8) and 200 µl of the HC extract (100 µg/ml concentration). The resultant mixture was mixed and the absorbance was measured immediately at 450 nm (T^0). The mixtures were then incubated at 37 °C for 30 min and the absorption was measured at 450 nm (T^30). Inhibition % = {A(cont)−A(test) × 100; A(cont)} [formula] where: • A(cont) - is the absorbance of the control (TC^0-TC^30) • A(test) - is the absorbance of the sample test /standard (T^0-T^30) (the HC, mangiferin and quercetin)

[5] = system: high fat diet fed rats; test: Anti-obesity activity in high fat diet fed rats; assay type: in vivo, Male Wistar rats; conditions: male rats, Orlistat 30 mg/kg (Group III)
Experimental: Objective: The objective was to investigate the effect of the HC against high fat diet fed rats. Animals: Male Wistar rats (160 to 200 g); No of animals: 36; Housing: 3/ cage, 12 hrs light/dark cycle; Temperature: 25±2°c; Model & Composition of the Diet: High fat diet in rats: 25% Lard, 5% Soyabean oil; 5% starch; 65% Normal commercial available rat feed; Groups: Male Wistar rats were divided into six groups with six animals in each group [table]

Compound: O=c1c(O)c(-c2ccc(O)c(O)c2)oc2cc(O)cc(O)c12 [Quercetin (Standard), Quercetin]
H2O2 scavenging activity ([1]; 10 µg/ml): 5.6% | H2O2 scavenging activity ([1]; 20 µg/ml): 14.55% | H2O2 scavenging activity ([1]; 30 µg/ml): 18.86% | H2O2 scavenging activity ([1]; 40 µg/ml): 33.96% | SOD activity % Inhibition [2]: 51.03% | Lipid peroxidation inhibitory assay % inhibition [3]: 53.44%

inhibition at 1200 µg/mL [4]: 41.8%
Compound: O=c1c2cc(O)c(O)cc2oc2cc(O)c([C@@H]3O[C@H](CO)[C@@H](O)[C@H](O)[C@H]3O)c(O)c12 [Mangiferin 98%, Mangiferin]

Compound: CCCCCCCCCCC[C@@H](C[C@@H]1OC(=O)[C@H]1CCCCCC)OC(=O)[C@H](CC(C)C)NC=O [Orlistat]
Initial weight ([5]; baseline, in g (unit assumed)): 182.00±0.96 | Atherogenic Index [5]: 1.39±0.15***^b | Average food intake [5]: 13.45±0.28^nsb g/rat | BAT [5]: 0.28± 0.01^nsb | Difference in body weight gain [5]: 79.82±2.58***^b | Epididymal fat pad Left [5]: 0.52± 0.03^nsb | Epididymal fat pad Right [5]: 0.55± 0.02^nsb | Fecal fatty acid estimation [5]: 4.1±0.26*^b | Insulin [5]: 0.15±0.005^nsb mU/L | Liver (organ weight) [5]: 2.8±0.08 ***^b | Liver triglycerides [5]: 87.77±2.28*^b | Mesenteric fat [5]: 1.02±0.07 ^nsb | Perirenal fat pad tissue Left [5]: 0.77± 0.08*^b | Perirenal fat pad tissue Right [5]: 0.77±0.08*^b | serum Glucose [5]: 92.00±2.89**^b mg/dL | Final weight ([5]; in g (unit assumed)): 261.80±2.53 | HDL-c ([5]; serum): 21.72±1.22**^b mg/dL | LDL-c ([5]; serum): 13.20±1.71**^b mg/dL | Total cholesterol ([5]; serum): 50.91±0.62***^b mg/dL | Triglyceride ([5]; serum): 79.96±1.13***^b mg/dL | inhibition at 1200 µg/mL [4]: 75.3%
